Laboratory results as given in patent EP0558245A1, “Heterobicyclic compounds as antagogists of alpha-1 adrenergic and SHT1A receptors” (priority 1992, dated 1993).
Like-named read-outs stand apart in the source and are kept apart here.

Columns and labels:
[1] = Acute toxicity in mice after intraperitoneal and oral administration; details: mouse, in vivo, female albino Swiss mice, mortality recorded 7 days after administration
Method: Male Sprague Dawley rats [Crl: CD' BR] of 200-300 g b.w., female Albino Swiss mice [Crl: CD-1 (ICR) BR] 20-30 g b.w., and male Beagle dogs (10-12 kg b.w.) were obtained from Charles River, Italy and Nossan (Correzzana, Milan, Italy), respectively. Animals were housed with free access to food and water and maintained on forced light-dark cycle at 22-24°C until the day of experiments.
The acute toxicity of synthesized compounds was evaluated in female albino Swiss mice after intraperitoneal and oral administration. Four logarithmic scaled doses of the compounds were dissolved or suspended in 0.5% Methocel and administered in a volume of 10 ml/kg to groups of 4 mice/dose. Mortality was recorded 7 days after the administration. Data analysis: the LD₅₀ values and their fiducial limits were calculated according to the method of Weil (Biometrics, 8, 249, 1952).

5HT1A receptors = molecular target: T1, 5HT1A receptors (Rattus norvegicus, UniProt P19327); assay: [3H]8-OH-DPAT binding (5HT1A receptors), rat hippocampus membranes; details: rat hippocampus crude membranes, [3H]8-OH-DPAT 1.0 nM, 25°C 30 min; read-out: Receptor Binding IC50 (nM) 5-HT1a
T1 construct: Rat hippocampi were homogenized; from tissue; host or cells: rat hippocampus membranes
T1 sequence (P19327 1-422): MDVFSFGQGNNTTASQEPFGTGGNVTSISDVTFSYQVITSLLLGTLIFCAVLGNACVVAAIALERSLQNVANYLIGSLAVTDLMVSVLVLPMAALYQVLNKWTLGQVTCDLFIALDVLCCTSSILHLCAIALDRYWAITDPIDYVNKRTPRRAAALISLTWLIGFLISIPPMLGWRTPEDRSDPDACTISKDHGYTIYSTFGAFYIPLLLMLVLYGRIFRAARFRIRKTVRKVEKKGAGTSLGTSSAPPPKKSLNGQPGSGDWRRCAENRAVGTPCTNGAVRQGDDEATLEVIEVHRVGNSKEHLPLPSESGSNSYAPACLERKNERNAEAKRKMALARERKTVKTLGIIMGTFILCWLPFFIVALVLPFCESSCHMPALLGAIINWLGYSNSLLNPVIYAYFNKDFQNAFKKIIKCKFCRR

α₁ receptors = assay: [3H]prazosin binding (α1 receptors), rat cerebral cortex membranes; details: rat cerebral cortex crude membranes, [3H]prazosin 0.35 nM, 25°C 30 min; read-out: Receptor Binding IC50 (nM) α1

Row | IC50 (5HT1A receptors) [nM] | IC50 (α₁ receptors) [nM] | SMILES | LD50 at 168 h ([1]; ip, intraperitoneal, read-out: Acute Toxicity in Mice LD50 (mg/kg) i.p.) [mg/kg] | LD50 at 168 h ([1]; oral, read-out: Acute Toxicity in Mice LD50 (mg/kg) p.o.) [mg/kg]
1 |  |  | COc1ccccc1N1CCN(CCCC(=O)c2cccc3c(=O)c(C)c(-c4ccccc4)oc23)CC1.CS(=O)(=O)O | > 500 | > 2000
2 | > 1000 | 166 | COc1ccccc1N1CC[N+]([O-])(CCCOc2cccc3c(=O)c(C)c(-c4ccccc4)oc23)CC1 [Example 43, 8-{3-[4-(2-methoxyphenyl)-1-oxo-1-piperazinyl]-propoxy}-3-methyl-4-oxo-2-phenyl-4H-1-benzopyran 1.75-hydrate] |  | 
3 | 23 | 86 | COc1ccccc1N1CCN(CCCSc2cccc3c(=O)c(C)c(-c4ccccc4)oc23)CC1 [Example 46, 8-{3-[4-(2-methoxyphenyl)-1-piperazinyl]-propylthio}-3-methyl-4-oxo-2-phenyl-4H-1-benzopyran] |  | 
4 | 11 | 40 | COc1ccccc1N1CCN(CCCNC(=O)c2cccc3c(=O)c(-c4ccccc4)coc23)CC1 [Example 64, 8-{3-[4-(2-methoxyphenyl)-1-piperazinyl]-propylcarbamoyl}-3-phenyl-4-oxo-4H-1-benzopyran dimethanesulphonate] |  | 
5 | 26 |  | Cc1c(-c2ccccc2)oc2c(C(=O)NCCCNCC3CCc4ccccc4C3=O)cccc2c1=O (stereo not drawn) [Example 65, 8-{3-[(3,4-dihydro-1-oxo-2H-naphthyl)-methylamino]-propylcarbamoyl}-3-methyl-4-oxo-2-phenyl-4H-1-benzopyran methanesulphonate] |  | 
6 | 13 | 29 | COc1ccccc1N1CCN(CCCN(OC2CCCCO2)C(=O)c2cccc3c(=O)c(C)c(-c4ccccc4)oc23)CC1 (stereo not drawn) [Example 68, 8-{N-(2-tetrahydropyranyloxy)-3-[4-(2-methoxyphenyl)-1-piperazinyl]-propylcarbamoyl}-3-methyl-4-oxo-2-phenyl-4H-1-benzopyran methanesulphonate hemihydrate] |  | 
7 | 69 | 108 | COc1ccccc1N1CCN(CCCN(O)C(=O)c2cccc3c(=O)c(C)c(-c4ccccc4)oc23)CC1 [Example 71, 8-{N-hydroxy-3-[4-(2-methoxyphenyl)-1-piperazinyl]-propylcarbamoyl}-3-methyl-4-oxo-2-phenyl-4H-1-benzopyran methanesulphonate 0.25 H20] |  | 
8 | 482 | 178 | COc1ccccc1OCCCNCCCNC(=O)c1cccc2c(=O)c(C)c(-c3ccccc3)oc12 [Example 74, 8-{3-[3-(2-methoxyphenoxy)-propylamino]-propylcarbamoyl}-3-methyl-4-oxo-2-phenyl-4H-1-benzopyran methanesulphonate hemihydrate] |  | 
9 | 15 | 147 | CSc1ccccc1OCCNCCCNC(=O)c1cccc2c(=O)c(C)c(-c3ccccc3)oc12 [Example 75, 8-{3-[2-(2-methylthiophenoxy)-ethylamino]-propylcarbamoyl}-3-methyl-4-oxo-2-phenyl-4H-1-benzopyran methanesulphonate] |  | 
10 | 116 | 18 | COc1ccccc1N1CCN(CC/C=C/c2cccc3c(=O)c(C)c(-c4ccccc4)oc23)CC1 [Example 78, (E)-8-{4-[4-(2-methoxyphenyl)-1-piperazinyl]-1-butenyl}-3-methyl-4-oxo-2-phenyl-4H-1-benzopyran] |  | 
11 | 162 | 28 | COc1ccccc1N1CCN(CCNC(=O)Cc2cccc3c(=O)cc(-c4ccccc4)oc23)CC1 [Example 80, 8-{2-[4-(2-methoxyphenyl)-1-piperazinyl]-ethylcarbamoylmethyl}-4-oxo-2-phenyl-4H-1-benzopyran methanesulphonate hydrate] |  | 
12 | 81 | 13 | COc1ccccc1N1CCN(CCCN(C(C)=O)C(=O)c2cccc3c(=O)c(C)c(-c4ccccc4)oc23)CC1 [Example 81, 8-{N-acetyl-3-[4-(2-methoxyphenyl)-1-piperazinyl]-propylcarbamoyl}-3-methyl-4-oxo-2-phenyl-4H-1-benzopyran] |  | 
13 | 5 | 30 | COc1ccccc1N1CCN(CCCNC(=S)c2cccc3c(=O)c(C)c(-c4ccccc4)oc23)CC1 [Example 83, 8-{3-[4-(2-methoxyphenyl)-1-piperazinyl]-propylthiocarbamoyl}-3-methyl-4-oxo-2-phenyl-4H-1-benzopyran methanesulphonate] |  | 
14 | 2 | 5 | COc1ccccc1N1CCN(CCCCS(=O)(=O)c2cccc3c(=O)c(C)c(-c4ccccc4)oc23)CC1 [Example 84, 8-{4-[4-(2-methoxyphenyl)-1-piperazinyl]-butylsulphonyl}-3-methyl-4-oxo-2-phenyl-4H-1-benzopyran methanesulphonate . ¼ H₂O] |  | 
15 | 14 | 16 | COc1ccccc1N1CCN(CCCNC(=O)c2cccc3c(=O)c(CO)c(-c4ccccc4)oc23)CC1 [Example 85, 8-{3-[4-(2-methoxyphenyl)-1-piperazinyl]-propylcarbamoyl}-3-hydroxymethyl-4-oxo-2-phenyl-4H-1-benzopyran. 0.4 ethanol] |  | 
16 | 20 | 48 | COc1ccccc1N1CCN(CCCNC(=O)c2cccc3c(=O)cc(-c4ccccc4)oc23)CC1 [Example 86, 8-{3-[4-(2-methoxyphenyl)-1-piperazinyl]-propylcarbamoyl}-4-oxo-2-phenyl-4H-1-benzopyran methanesulphonate . ¼ H₂O] |  | 
17 | 11 | 216 | COc1ccccc1N1CCN(CCCNC(=O)c2cccc3c(=O)ccoc23)CC1 [Example 88, 8-{3-[4-(2-methoxyphenyl)-1-piperazinyl]-propylcarbamoyl}-4-oxo-4H-1-benzopyran methanesulphonate . 1.25 H₂O] |  | 
18 | 38 | 47 | COc1ccccc1N1CCN(CCCNC(=O)c2cc([N+](=O)[O-])cc3c(=O)c(C)c(-c4ccccc4)oc23)CC1 [Example 93, 8-{3-[4-(2-methoxyphenyl)-1-piperazinyl]-propylcarbamoyl}-3-methyl-6-nitro-4-oxo-2-phenyl-4H-1-benzopyran] |  | 
19 | 66 | 39 | COc1ccccc1N1CCN(CCCNC(=O)c2cc(N)cc3c(=O)c(C)c(-c4ccccc4)oc23)CC1 [Example 94, 8-{3-[4-(2-methoxyphenyl)-1-piperazinyl]-propylcarbamoyl}-6-amino-3-methyl-4-oxo-2-phenyl-4H-1-benzopyran] |  | 
20 | 12 | 103 | COc1ccccc1N1CCN(CCCNC(=O)c2c(OC)ccc3c(=O)c(C)c(-c4ccccc4)oc23)CC1 [Example 98, 8-{3-[4-(2-methoxyphenyl)-1-piperazinyl]-propylcarbamoyl}-7-methoxy-3-methyl-4-oxo-2-phenyl-4H-1-benzopyran] |  | 
21 | 5 | 44 | COc1ccccc1N1CCN(CCCNC(=O)c2cccc3c(=O)c(C)c(-c4ccc(C(F)(F)F)cc4)oc23)CC1 [Example 99, 8-{3-[4-(2-methoxyphenyl)-1-piperazinyl]-propylcarbamoyl}-3-methyl-4-oxo-2-(4-trifluoromethylphenyl)-4H-1-benzopyran methanesulphonate sesquihydrate] |  | 
22 | 18 | 56 | COc1ccccc1N1CCN(CCCNC(=O)c2cccc3c(=O)c(C)c(C)oc23)CC1 [Example 102, 8-{3-[4-(2-methoxyphenyl)-1-piperazinyl]-propylcarbamoyl}-2,3-dimethyl-4-oxo-4H-1-benzopyran] |  | 
23 | 15 | 9 | COc1ccccc1N1CCN(CCCNC(=O)c2cccc3c(=O)c(C)c(C4CCCCC4)oc23)CC1 [Example 104, 8-{3-[4-(2-methoxyphenyl)-1-piperazinyl]-propylcarbamoyl}-2-cyclohexyl-3-methyl-4-oxo-4H-1-benzopyran] |  | 
24 | 16 | 37 | COc1ccccc1N1CCN(CCCNC(=O)c2cccc3c(=O)cc(-c4ccccc4)sc23)CC1 [Example 107, 8-{3-[4-(2-methoxyphenyl)-1-piperazinyl]-propylcarbamoyl}-4-oxo-2-phenyl-4H-1-benzothiopyran] |  | 
25 | 15 | 26 | COc1ccc(-c2oc3c(C(=O)NCCCN4CCN(c5ccccc5OC)CC4)cccc3c(=O)c2C)cc1 [Example 110, 8-{3-[4-(2-methoxyphenyl)-1-piperazinyl]-propylcarbamoyl}-2-(4-methoxyphenyl)-3-methyl-4-oxo-4H-1-benzopyran] |  | 

Row | SMILES | IC50 (5HT1A receptors) [nM] | IC50 (α₁ receptors) [nM] | LD50 at 168 h ([1]; ip, intraperitoneal, read-out: Acute Toxicity in Mice LD50 (mg/kg) i.p.) [mg/kg] | LD50 at 168 h ([1]; oral, read-out: Acute Toxicity in Mice LD50 (mg/kg) p.o.) [mg/kg]
26 | COc1ccccc1N1CCN(CCCC(=O)c2cccc3c(=O)c(C)c(-c4ccccc4)oc23)CC1.CS(=O)(=O)O [methanesulphonate] | 84 | 22 |  | 
